The numbers were not newly measured in patent US7737133B2, “Formulations and methods of treating inflammatory bowel disease” (AGI Therapeutics Ltd., priority 2003, dated 2010), which cites them from elsewhere.

The conditions of series [1]: reportedly; Ginsberg et al.
For series [2] the following is noted: compared with 5-ASA.

As for `Nc1ccc(C(=O)O)c(O)c1` [Example 4-ASA, 4-aminosalicylic acid], the nephrotoxicity entry in series [1] is “absence of nephrotoxicity”. For the same compound, the aqueous stability entry in series [2] is recorded as “higher aqueous stability”.
With `O=C(O)c1cc(N=Nc2ccc(O)c(C(=O)O)c2)ccc1O` [olsalazine, 5,5′-azo-bis salicylic acid], under “after cleavage of olsalazine in the colon”, the “systemic absorption of 5-ASA or its acetylated form” value is given as “approximately 20%”. Also, the “absorbed intact from the gut” value (olsalazine, conventional powder capsule) is listed as 2.4%.
